The values below come from patent publication US5674840A, “Synthetic aglucodalbaheptide antibiotics” (Gruppo Lepetit SpA, priority 1993, dated 1997).

What all share (experiment): in vitro antibacterial activity, MIC microdilution
Assay [1] has as its system Enterococcus faecalis ATCC 7,080 (L 149). In kind it is cell-based. The settings on record: Mueller-Hinton broth, 0.01% bovine serum albumin, 37° C., 18-24 hours. As to the method:
(§1) The in vitro antibacterial activity of the compounds is determined by means of standard […] tests in microtiter. Iso-Sensitest broth (Oxoid) is used for all bacteria except streptococci (Todd-Wewitt broth, Difco) and enterococci (Mueller-Hinton, Difco). Broth cultures are diluted so that the final inoculum was about 5×10^5 cfu/ml (colony forming units per ml). All broth microdilution MICs are performed in the presence of 0.01% bovine serum albumin (Pentax fraction V, Sigma).

Assay [2] has as its system S. epidermidis ATCC 12,228 (L 147). In kind it is cell-based. The settings on record: Iso-Sensitest broth, 0.01% bovine serum albumin, 37° C., 18-24 hours. As to the method:
as §1

The test system of assay [3] is S. epidermidis clin. isol. (L 533). The format is cell-based. The settings on record: Iso-Sensitest broth, 0.01% bovine serum albumin, 37° C., 18-24 hours. As to the method:
as §1

Assay [4] concerns S. haemolyticus clin, isol. (L 602). In kind it is cell-based. The settings on record: Iso-Sensitest broth, 0.01% bovine serum albumin, 37° C., 18-24 hours. As for the experimental part: as §1
The test system of assay [5] is Staph. aurevi Tour (L 165). The format is cell-based. The settings on record: Iso-Sensitest broth, 0.01% bovine serum albumin, 37° C., 18-24 hours. As for the experimental part: as §1
For assay [6], the system named is Strep. pneumoniae UC41 (L 44). In kind it is cell-based. The settings on record: Todd-Wewitt broth, 0.01% bovine serum albumin, 37° C., 18-24 hours. As to the method: as §1
In assay [7] the test system is s. aureus clin. isol. (L 561). The format is cell-based. The conditions noted are these: Iso-Sensitest broth, 0.01% bovine serum albumin, 37° C., 18-24 hours. As for the experimental part: as §1
Assay [8] has as its system Strep. pyogenes C203 (L 49). The format is cell-based. The conditions noted are these: Todd-Wewitt broth, 0.01% bovine serum albumin, 37° C., 18-24 hours. As to the method:
(§2) The in vitro antibacterial activity of the compounds is determined by means of standard […] tests in microtiter. Iso-Sensitest broth (Oxoid) is used for all bacteria except streptococci (Todd-[…] broth, Difco) and enterococci (Mueller-Hinton, Difco). Broth cultures are diluted so that the final inoculum was about 5×10^5 cfu/ml (colony forming units per ml).

A further assay has as its system s. aureus Smith (L 819). In kind it is cell-based. The conditions noted are these: Iso-Sensitest broth, 0.01% bovine serum albumin, 37° C., 18-24 hours. As for the experimental part: as §2
The test system of assay [9] is E. faecalis clin. isol. (L 502). In kind it is cell-based, Enterococcus faecalis. The conditions noted are these: for MIC: E. faecalis clin. isol. (L 502), Mueller-Hinton broth, 0.01% bovine serum albumin, 37° C., 18-24 hours. As for the experimental part:
as §1

Consider `N[C@H]1C(=O)N[C@@H]2Cc3ccc(c(Cl)c3)Oc3cc4cc(c3O)Oc3ccc(cc3Cl)[C@@H](O)[C@@H]3NC(=O)[C@H](NC(=O)[C@@H]4NC(=O)[C@@H](NC2=O)c2cc(O)cc(c2)Oc2cc1ccc2O)c1ccc(O)c(c1)-c1c(O)cc(O)cc1[C@@H](C(=O)O)NC3=O` [teicoplanin aglycon], for which the MIC in assay [1] worked out at 0.13 mg/1; in assay [2], 0.06 mg/1; in assay [3], 0.016 mg/1; in [4], 0.25 mg/1; in [5], 0.13 mg/1; in assay [6], 0.13 mg/1. In addition, the MIC in assay [7] is reported as 0.13 mg/1; in [8], 0.13 mg/1; against s. aureus Smith (L 819), 0.06 mg/1; in [9] it was over 128 mg/1.
With “(L-phenylalanyl)^3 -(D-lysyl)^15 -aglucoteicoplanin dalbaheptide methyl ester”, the MIC was 0.5 mg/1 in assay [1]; 0.13 mg/1 in assay [2]; 0.13 mg/1 in [3]; 0.5 mg/1 in assay [4]; 0.13 mg/1 in assay [5]; 0.13 mg/1 in [6]. The MIC in assay [7] was determined as 0.06 mg/1; in assay [8], 0.25 mg/1; against s. aureus Smith (L 819), 0.13 mg/1; in [9] it was 16 mg/1. Moreover, the “activity against a clinical isolate of Enterococcus faecalis (in words)” value in assay [9] (clinical isolate of Enterococcus faecalis) is reported as “surprisingly active”.
Consider teicoplanin, for which the MIC is 0.13 mg/1 in assay [1]; 8 mg/1 in assay [2]; 8 mg/1 in [3]; 32 mg/1 in assay [4]; 0.13 mg/1 in assay [5]; 0.13 mg/1 in assay [6]. The MIC was 8 mg/1 in assay [7], 0.13 mg/1 in [8], 0.25 mg/1 in the assay on s. aureus Smith (L 819) and over 128 mg/1 in assay [9].
